Laboratory results taken from patent publication US20260234107A1, “TRYPTAMINES AND METHODS OF TREATING MOOD DISORDERS” (priority 2022, published 2026).
Read-outs that look alike come from different tables or passages of the source.

Columns and labels:
[1] = Stability in mouse brain homogenate; type: in vitro ADME, male CD-1 mice; settings: mouse brain homogenate, 1 μM, 37° C.; for half-life at 1 µM: male, CD-1
Method: Disclosed compounds were tested for stability in mouse brain homogenate (Table 7). There was widely variable stability among the test compounds under the conditions of the experiment.
(§1) Mouse Brain Homogenate Stability. Frozen mouse brain homogenate (pooled from male CD-1 mice, BioreclamationIVT, MSE00BRAINMZA) was thawed in a water bath at 37° C. immediately prior to use. Positive controls and test compounds (final concentration in incubation medium=1 μM for test compounds and 2 μM for controls, all with 2% DMSO) were incubated in duplicate for each time point (0, 10, 30, 60, and 120 min) in the mouse brain homogenate at a total reaction volume of 100 μL at 37° C. At the end of each incubation period, reactions were immediately quenched with 400 μL of acetonitrile containing internal standard (200 ng/mL tolbutamine and 200 ng/mL labetalol) and mixed thoroughly. Plates were then sealed, shaken for 20 min, and centrifuged at 4,000 rpm and 4° C. for 20 min. Aliquots of 50 μL of each supernatant were diluted into 100 μL of water and the mixtures were then shaken again for 10 min.

[2] = target: T1, 5-HT1A (Homo sapiens, UniProt P08908); assay: FLIPR Ca2+ flux agonist assay at 5-HT1A; type: cell-based; settings: for 5-HT1A % Act @ Max Dose: Ca2+ flux, CHO cells
T1 construct: host or cells: CHO cells
T1 sequence (P08908 1-422): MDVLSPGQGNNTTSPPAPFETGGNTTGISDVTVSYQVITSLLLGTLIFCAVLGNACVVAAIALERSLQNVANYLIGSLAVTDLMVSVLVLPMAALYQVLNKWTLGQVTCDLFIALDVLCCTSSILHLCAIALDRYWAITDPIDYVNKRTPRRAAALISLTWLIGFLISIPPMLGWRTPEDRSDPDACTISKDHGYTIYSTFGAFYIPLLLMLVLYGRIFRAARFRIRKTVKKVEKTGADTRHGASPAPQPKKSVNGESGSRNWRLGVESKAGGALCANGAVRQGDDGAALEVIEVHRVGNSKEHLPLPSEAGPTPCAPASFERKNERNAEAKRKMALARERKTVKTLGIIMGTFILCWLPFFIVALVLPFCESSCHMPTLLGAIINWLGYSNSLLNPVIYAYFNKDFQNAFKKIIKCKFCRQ
Method: (§2) A solution of 250 mM probenecid in 1 mL FLIPR assay buffer was prepared fresh. This was combined with a fluorescent dye (Fluo-4 Direct™) to make a final assay concentration of 2.5 mM. […] The fluorescent dye was then added to the assay plate along with assay buffer to a final volume of 40 μL. The cell plate was incubated for 50 min at 37° C. and 5% CO2 and placed into the FLIPR Tetra along with the compound plate. 10 μL of references and compounds were then transferred from the compound plate into the cell plate and the fluorescent signal was read.

[3] = Stability in rat brain homogenate; type: in vitro ADME, male Sprague Dawley rats; settings: rat brain homogenate, 1 μM, 37° C.; for half-life at 1 µM: male, Sprague Dawley
Method: Disclosed compounds were tested for stability in rat brain homogenate (Table 8). There was widely variable stability among the test compounds under the conditions of the experiment.
as §1, with “Rat” for “Mouse”, “rat” for “mouse”, “Sprague Dawley rats,” for “CD-1 mice,”, “RAT00BRAINMZA)” for “MSE00BRAINMZA)”

[4] = target: 5-HT2A (Homo sapiens, UniProt P28223); assay: FLIPR Ca2+ flux agonist assay at 5-HT2A; type: cell-based; set-up: host or cells: HEK293; settings: for 5-HT2A % Act @ Max Dose: HEK293, max dose
Method: as §2

[5] = Metabolic stability in human liver microsomes (HLM); set-up: microsomal CLint / half-life: dose or concentration left out as unconfirmed; settings: both, human, pooled human liver microsomes, pH 7.4
[6] = target: T2, 5-HT2B (Homo sapiens, UniProt P41595); assay: FLIPR Ca2+ flux agonist assay at 5-HT2B; type: cell-based; settings: for 5-HT2B % Act @ Max Dose: Ca2+ flux, HEK293, max dose
T2 construct: host or cells: HEK293
Method: as §2

[7] = system: monoamine oxidase A and B (MAO-A and MAO-B); assay: Stability in the presence of monoamine oxidases (human liver mitochondria preparation); set-up: half-life / microsomal CLint: dose or concentration left out as unconfirmed; settings: for stability in the presence of MAO (in words): human liver mitochondria preparation; for Remaining (t = 60 min) / half-life / microsomal CLint: human liver mitochondria; for half-life / microsomal CLint: human, pH 7.4
Method: Liver Mitochondria Incubations. Human liver mitochondria (Xenotech H0610.M) were used.

[8] = Ca2+ flux, HEK293, read-out: 5-HT2A EC50
[9] = human liver mitochondria 0.30 mg protein/mL, 37° C.

T2 sequence (P41595 whole entry, species assumed): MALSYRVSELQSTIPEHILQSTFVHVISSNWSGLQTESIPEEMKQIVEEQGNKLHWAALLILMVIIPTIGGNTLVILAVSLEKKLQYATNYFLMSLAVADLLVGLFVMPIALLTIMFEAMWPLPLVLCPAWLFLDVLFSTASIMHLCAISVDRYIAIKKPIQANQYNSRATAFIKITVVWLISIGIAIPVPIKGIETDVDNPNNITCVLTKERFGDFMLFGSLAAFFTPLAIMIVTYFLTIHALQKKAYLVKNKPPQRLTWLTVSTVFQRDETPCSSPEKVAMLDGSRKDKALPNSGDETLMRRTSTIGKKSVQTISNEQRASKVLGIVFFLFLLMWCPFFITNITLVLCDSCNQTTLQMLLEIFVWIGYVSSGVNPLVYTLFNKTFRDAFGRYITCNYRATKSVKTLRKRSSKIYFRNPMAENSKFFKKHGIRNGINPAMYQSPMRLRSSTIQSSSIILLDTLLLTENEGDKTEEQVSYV
Chain of 5-HT2A (P28223 whole entry): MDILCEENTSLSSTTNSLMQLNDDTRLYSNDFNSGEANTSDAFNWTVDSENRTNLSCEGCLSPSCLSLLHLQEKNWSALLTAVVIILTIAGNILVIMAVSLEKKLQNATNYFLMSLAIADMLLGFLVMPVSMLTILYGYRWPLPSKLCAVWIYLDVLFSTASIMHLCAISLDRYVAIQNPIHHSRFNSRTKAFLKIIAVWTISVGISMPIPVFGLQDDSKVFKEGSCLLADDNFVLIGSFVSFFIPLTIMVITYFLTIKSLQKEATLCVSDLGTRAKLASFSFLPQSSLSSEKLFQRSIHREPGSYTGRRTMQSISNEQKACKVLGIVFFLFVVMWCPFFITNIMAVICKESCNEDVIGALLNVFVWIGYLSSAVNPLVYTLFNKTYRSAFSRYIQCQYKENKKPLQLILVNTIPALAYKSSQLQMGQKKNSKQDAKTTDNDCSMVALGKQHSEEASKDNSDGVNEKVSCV

| SMILES | half-life at 1 µM [1] | % Compound Remaining (after 120 min) [1] | EC50 [2] | 5-HT1A % Act @ Max Dose [2] | half-life at 1 µM [3] | % Compound Remaining (after 120 min) [3] | EC50 [4, 8] | half-life [5] | microsomal CLint [5] | EC50 [6] | 5-HT2B % Act @ Max Dose [6] | stability in the presence of MAO (in words) [7] | Remaining (t = 60 min) [7] | half-life [7] | microsomal CLint [7] | EC50 [4] | 5-HT2A % Act @ Max Dose ([4]; Ca2+ flux) | further results |
| --- | --- | --- | --- | --- | --- | --- | --- | --- | --- | --- | --- | --- | --- | --- | --- | --- | --- | --- |
| NCCc1c[nH]c2cc(F)cc(O)c12 [Compound 31, 3-(2-aminoethyl)-6-fluoro-1H-indol-4-ol] | 20.3 min | 1.6% | 12.5 µM | 18.3% | 11.4 min | 0% | 0.00636 µM | 16.9 min | 81.8 µL/min/mg | 0.00507 µM | 99.12% | intermediate stability | 24.6% | 30.1 min | 76.8 µL/min/mg | – | – | – |
| NCCc1c[nH]c2c(F)ccc(O)c12 [Compound 32, 3-(2-aminoethyl)-7-fluoro-1H-indol-4-ol] | 29 min | 4.8% | > 100 µM | 38.64% | 9.5 min | 0% | 0.0073 µM | 16 min | 86.5 µL/min/mg | 0.0303 µM | 66.55% | intermediate stability | 24.0% | 28.4 min | 81.4 µL/min/mg | – | – | – |
| NCCc1c[nH]c2cccc(O)c12 [Compound 1, 3-(2-aminoethyl)-1H-indol-4-ol] | 12.6 min | 0.0% | 92.6 µM | 49.9% | 10 min | 0.0% | – | 34.3 min | 40.4 µL/min/mg | 0.151 µM | 83.98% | – | 51.1% | 70.5 min | 32.8 µL/min/mg | 0.0334 µM | 99.2% | – |
| C#CCNCCc1c[nH]c2cccc(O)c12 [Compound 24, 3-(2-(prop-2-yn-1-ylamino)ethyl)-1H-indol-4-ol] | 97.3 min | 40.5% | > 100 µM | −3.14% | 92.4 min | 41.9% | – | 92.4 min | 15 µL/min/mg | 0.0883 µM | 48.26% | – | 87.2% | > 145 min | < 15.9 µL/min/mg | 0.0201 µM | 96.07% | – |
| CCNCCc1c[nH]c2ccc(Cl)c(O)c12 [Compound 38, 5-chloro-3-(2-(ethylamino)ethyl)-1H-indol-4-ol] | 17.5 min | 0.9% | 1.84 µM | 77.96% | 9.2 min | 0% | – | 13.2 min | 105 µL/min/mg | 0.0424 µM | 43.30% | intermediate stability | 22.6% | 26.1 min | 88.6 µL/min/mg | 0.0105 µM | 103.70% | – |
| Oc1cccc2[nH]cc(CCNCCF)c12 [Compound 7, 3-(2-((2-fluoroethyl)amino)ethyl)-1H-indol-4-ol] | 177 min | 61.8% | > 100 µM | 42.13% | > 289 min | 77.1% | – | 77 min | 18 µL/min/mg | 0.375 µM | 20.76% | – | 85.2% | > 145 min | < 15.9 µL/min/mg | 0.0472 µM | 86.8% | – |
| C=CCNCCc1c[nH]c2cccc(O)c12 [Compound 23, 3-(2-(allylamino)ethyl)-1H-indol-4-ol] | 127 min | 49.6% | – | – | 126 min | 52.4% | – | 118 min | 11.8 µL/min/mg | – | – | – | 83.5% | > 145 min | – | – | – | – |
| CNCCc1c[nH]c2ccc(F)c(O)c12 [Compound 26, 5-fluoro-3-(2-(methylamino)ethyl)-1H-indol-4-ol] | 1.7 min | 0% | 3.49 µM | 74.21% | 2.2 min | 0% | – | 0.9 min | 1520 µL/min/mg | – | 13.87% | – | 0.1% | 6.3 min | 369 µL/min/mg | 0.021 µM | 86.9% | – |
| Oc1c(F)ccc2[nH]cc(CCNC3CC3)c12 [Compound 27, 3-(2-(cyclopropylamino)ethyl)-5-fluoro-1H-indol-4-ol] | 69.6 min | 29.4% | 1.23 µM | 84.02% | 15.1 min | 0.4% | 0.00737 µM | 19.8 min | 70 µL/min/mg | 0.00953 µM | 36.08% | intermediate stability | 32.1% | 36.2 min | 63.9 µL/min/mg | – | – | – |
| NCCc1c[nH]c2ccc(F)c(O)c12 [Compound 30, 3-(2-aminoethyl)-5-fluoro-1H-indol-4-ol] | 6.4 min | 0% | 5.22 µM | 73.4% | 3.9 min | 0.1% | 0.00406 µM | 9.3 min | 149 µL/min/mg | 0.00462 µM | 95.46% | – | 0.0% | 6.5 min | 356 µL/min/mg | – | – | – |
| COc1ccc2[nH]cc(CCN(C)C)c2c1 [Compound 5-MeO-DMT, reference compound] | – | 91.2% | – | 78.8% | – | 0.3% | – | – | – | – | 20.5% | rapidly metabolized by MAO | 47.1% | – | – | – | – | t1/2 [1]: >289.1 min; t1/2 [3]: 14.4 min; CLint(MAO) [7, 9]: 43.6 µL/min/mg; t1/2 [7, 9]: 52.9 min |
